Where “and” joins values, the source holds several entries; their conditions need not be identical. Equal values may be shown once.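 A five-concentration, 48-hour dose response in 96-well plates underlies each endpoint, interpolated linearly between surrounding concentrations. Abbreviation: GI50, concentration required for 50% inhibition of growth. The concentration for full growth arrest is given as TGI.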
Tests used:
Experiment in all cases: NCI tumour cell line growth inhibition, 48 h
A549 NSCLC = test system: A549 NSCLC
CAKI-1 renal = test system: CAKI-1 renal
CCRF-CEM leukemia = test system: CCRF-CEM leukemia
EKVX NSCLC = test system: EKVX NSCLC
HCT-116 colon = test system: HCT-116 colon
HCT-15 colon = test system: HCT-15 colon
HOP-92 NSCLC = test system: HOP-92 NSCLC
LOX IMVI melanoma = test system: LOX IMVI melanoma
SK-MEL-28 melanoma = test system: SK-MEL-28 melanoma

Compound	GI50 (A549 NSCLC)	TGI (A549 NSCLC)	GI50 (CAKI-1 renal)	TGI (CAKI-1 renal)	GI50 (CCRF-CEM leukemia) [µM]	TGI (CCRF-CEM leukemia) [µM]	GI50 (EKVX NSCLC)	TGI (EKVX NSCLC)	GI50 (HCT-116 colon)	TGI (HCT-116 colon)	GI50 (HCT-15 colon)	TGI (HCT-15 colon)	GI50 (HOP-92 NSCLC)	TGI (HOP-92 NSCLC)	GI50 (LOX IMVI melanoma)	TGI (LOX IMVI melanoma)	GI50 (SK-MEL-28 melanoma)	TGI (SK-MEL-28 melanoma)
COc1ccc(-n2cc(-c3cc(OC)c(OC)c(OC)c3)nc2SCc2ccc(Cl)cc2)cc1OC	53.2 µM	> 100 µM	> 100 µM	> 100 µM	> 100	> 100	95.3 µM	> 100 µM	> 100 µM	> 100 µM	30.5 µM	> 100 µM	65.5 µM	> 100 µM	> 100 µM	> 100 µM	> 100 µM	> 100 µM
O=CC(OC(=O)c1ccccc1)C(OC(=O)c1ccccc1)C(COC(c1ccccc1)(c1ccccc1)c1ccccc1)OC(=O)c1ccccc1 (stereo not drawn)	22.1 µM	61.7 µM	25.1 µM	72.2 µM	2.21	7.26	19.6 µM	61.5 µM	6.21 µM	19 µM	16.6 µM	43.1 µM			11 µM	27.3 µM	13.5 µM	28.3 µM
Oc1ccc(NC(=S)Nc2ccccc2)cc1	> 100 µM	> 100 µM	> 100 µM	> 100 µM	> 100	> 100	> 100 µM	> 100 µM	> 100 µM	> 100 µM	> 100 µM	> 100 µM	51.8 µM	> 100 µM	> 100 µM	> 100 µM	> 100 µM	> 100 µM
CCN(C(=O)N1CCN(c2cc3c(cc2F)c(=O)c(C(=O)O)cn3C2CC2)CC1)c1nc(-c2ccccc2)cs1	3.11 µM	> 100 µM	2.58 µM	10.3 µM			3.35 µM	> 100 µM	2.64 µM	> 100 µM	2.9 µM	> 100 µM	2.17 µM	7.53 µM	1.39 µM	9.09 µM	3 µM	> 100 µM
C=CC(=O)N[C@@H]1CN(c2nc(Nc3cn(C)nc3OC)c3ncn(C)c3n2)C[C@H]1F	24.5 µM	> 100 µM	1.22 µM	> 100 µM	39.4	> 100	0.273 µM	97.9 µM	27.3 µM	> 100 µM	39 µM	> 100 µM	17.3 µM	70.7 µM	30 µM	> 100 µM	50 µM	> 100 µM
Cc1ccc2nc(NC(=O)C(=O)C(C(=O)c3ccc4ccccc4c3)C3OC(=O)c4ccccc43)sc2c1 (stereo not drawn)		53.8 µM		52.3 µM				44.5 µM		20.8 µM				15.2 µM		27.7 µM		19.3 µM
C=C1CCC2CC1C(C(=O)c1c[nH]c3ccccc13)=NC2(C)C (stereo not drawn)		> 100 µM		> 100 µM		> 100		> 100 µM		> 100 µM		> 100 µM				> 100 µM		> 100 µM
Cc1cc(F)c(C(=O)Nc2cccc(-c3nncn3C(C)C)n2)cc1-n1cnc(C2CC2)c1	15.2 µM	74 µM	10.5 µM	> 100 µM	21	> 100	13.1 µM	52.3 µM	8.25 µM	> 100 µM	15.6 µM	96.4 µM	8.23 µM	> 100 µM	14.4 µM	35.9 µM	20.9 µM	64.7 µM
Clc1ccc(-c2cc(-c3ccccc3)nc(N3CCN(CCCNc4ccnc5cc(Cl)ccc45)CC3)n2)cc1	1.77 µM	3.75 µM	1.66 µM	3.13 µM					0.934 µM	2.22 µM	0.779 µM	2.48 µM	1.21 µM	2.6 µM	1.75 µM	3.19 µM	1.72 µM	3.14 µM
CCCCCC/C=C/C#CCCCCCCCC(=O)O		> 100 µM		> 100 µM		> 100		> 100 µM		> 100 µM		> 100 µM		> 100 µM		> 100 µM		> 100 µM
O=C1/C(=C/c2cccnc2)SC(=S)N1Cc1ccco1		> 100 µM		80.6 µM		14.5		> 100 µM		> 24.9 µM		> 100 µM		> 43.1 µM		> 100 µM		> 100 µM
CCc1cccc(C(C)C)c1NC(=O)CC1Sc2ccccc2NC1=O (stereo not drawn)		> 100 µM		> 100 µM		> 100		> 100 µM		> 100 µM		> 100 µM		95.3 µM		> 100 µM		> 100 µM
Cc1ccc2c(c1)[n+](=O)c(C(=O)c1cccs1)c(C(F)(F)F)n2[O-]	1.72 µM and 0.764 µM	20.9 µM and 10.8 µM	0.856 µM and 0.395 µM	3.43 µM and 4.07 µM	1.72	50	0.729 µM and 0.278 µM	1.87 µM and 0.746 µM	2.47 µM and 0.731 µM	50 µM and 15.9 µM	0.753 µM and 0.618 µM	7 µM and 14.8 µM	1.63 µM and 1.78 µM	11.5 µM and 15.3 µM	0.612 µM and 0.561 µM	1.76 µM and 1.82 µM	5.31 µM and 2.91 µM	50 µM and 22.6 µM
Oc1ccc2ccccc2c1CCc1c(O)ccc2ccccc12		25.3 µM		20.5 µM		25.2		26.4 µM		25.1 µM		28 µM		24.7 µM		28 µM		22.6 µM
COc1ccc(C(=O)/C=C/c2sc(Cl)nc2Cl)cc1	3.72 µM	19.5 µM	1.7 µM	5.45 µM	0.267	14.7	3.67 µM	14.8 µM	0.49 µM	1.84 µM	0.416 µM	2.14 µM	4.06 µM	18 µM	0.33 µM	1.36 µM	2.57 µM	8.17 µM
C[C@@H]1CC[C@H]2[C@@H](C)C(O)O[C@@H]3O[C@]4(C)CC[C@@H]1[C@]32OO4 (stereo partly drawn)	1.74 µM	13.5 µM	0.758 µM	> 47.2 µM	0.568	35	0.65 µM	17.2 µM	0.141 µM	3.55 µM	0.141 µM	13.8 µM	0.716 µM	7.05 µM	0.309 µM	0.973 µM	3.23 µM	> 74.5 µM

From PubChem BioAssay (NCI)
